17 compounds from PMC4829233, “Identification of Novel Chemical Scaffolds Inhibiting Trypanothione Synthetase from Pathogenic Trypanosomatids” (PLoS Neglected Tropical Diseases, 2016) can be followed below.

Several values for one entry are separate records, joined by “and”; a condition that tells them apart may be missing. Equal entries are not always repeated.

Sequence of TbTryS (Trypanosoma brucei trypanothione synthetase) (Q8IEX1 1-627): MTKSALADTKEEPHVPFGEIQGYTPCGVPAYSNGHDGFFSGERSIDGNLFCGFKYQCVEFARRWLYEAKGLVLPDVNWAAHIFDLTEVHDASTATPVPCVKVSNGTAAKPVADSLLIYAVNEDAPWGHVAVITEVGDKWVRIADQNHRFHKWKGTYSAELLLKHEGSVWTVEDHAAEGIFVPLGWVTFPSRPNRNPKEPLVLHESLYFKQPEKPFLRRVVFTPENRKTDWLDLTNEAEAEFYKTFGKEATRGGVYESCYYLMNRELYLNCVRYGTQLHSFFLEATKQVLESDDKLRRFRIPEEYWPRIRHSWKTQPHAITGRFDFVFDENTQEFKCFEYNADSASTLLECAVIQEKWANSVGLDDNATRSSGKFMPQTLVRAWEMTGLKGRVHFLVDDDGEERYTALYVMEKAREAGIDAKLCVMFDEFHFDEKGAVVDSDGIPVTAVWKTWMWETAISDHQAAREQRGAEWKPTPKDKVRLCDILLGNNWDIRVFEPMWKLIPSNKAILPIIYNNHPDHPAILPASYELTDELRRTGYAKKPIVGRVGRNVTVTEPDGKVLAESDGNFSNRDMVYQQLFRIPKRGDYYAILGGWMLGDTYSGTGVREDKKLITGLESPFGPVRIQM

The target in the first assay is TcTryS (Trypanosoma cruzi trypanothione synthetase) (Trypanosoma cruzi, UniProt Q9GT49). Description: biochemical.
Sequence of TcTryS (Trypanosoma cruzi trypanothione synthetase) (Q9GT49 whole entry): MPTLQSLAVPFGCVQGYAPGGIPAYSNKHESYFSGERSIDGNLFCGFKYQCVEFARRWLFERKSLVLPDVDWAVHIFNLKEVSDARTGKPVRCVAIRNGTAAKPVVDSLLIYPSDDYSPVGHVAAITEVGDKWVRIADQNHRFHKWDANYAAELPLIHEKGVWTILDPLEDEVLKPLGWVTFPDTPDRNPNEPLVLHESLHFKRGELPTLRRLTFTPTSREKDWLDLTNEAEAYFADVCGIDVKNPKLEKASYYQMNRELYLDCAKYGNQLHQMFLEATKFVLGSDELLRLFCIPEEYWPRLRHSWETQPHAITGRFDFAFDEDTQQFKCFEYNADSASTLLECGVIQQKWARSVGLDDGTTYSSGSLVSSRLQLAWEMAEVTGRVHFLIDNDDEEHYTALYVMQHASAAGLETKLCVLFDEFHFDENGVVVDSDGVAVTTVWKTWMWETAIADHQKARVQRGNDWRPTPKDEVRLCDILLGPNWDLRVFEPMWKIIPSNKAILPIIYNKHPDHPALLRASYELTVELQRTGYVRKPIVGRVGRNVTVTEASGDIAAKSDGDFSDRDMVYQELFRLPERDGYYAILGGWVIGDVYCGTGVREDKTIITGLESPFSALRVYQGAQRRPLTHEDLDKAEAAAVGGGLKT
Details: not given
The class given is biochemical.
In the case of `c1ccc(COc2ccc(CNCCCNCc3ccc(OCc4ccccc4)cc3)cc2)cc1` [APC1-71B], the “TcTryS Activity ± 2σn-1 (%)” value is 99.0 ± 19.1; 2%.

In the case of `Brc1ccc(CNCCCCCCCCNCc2ccc(Br)cc2)cc1` [EAP1-46], the “TcTryS Activity ± 2σn-1 (%)” value was 93.7 ± 7.6; 3%.

As for `c1ccc(CNCCCCCCCCNCc2ccccc2)cc1` [EAP1-5 (I)], the “TcTryS Activity ± 2σn-1 (%)” value is on record as 82.8 ± 5.2; 3%.

On to `[O-][n+]1onc2cc(F)ccc21` [Compound J31], for which the “TcTryS Activity ± 2σn-1 (%)” value is 118.8 ± 6.1; 4 (1.00) %.

As to `Cc1ccc(CNCCCCCCCCCCNCc2ccc(C)cc2)cc1` [EAP1-55], the “TcTryS Activity ± 2σn-1 (%)” value is listed as 68.6 ± 3.9; 2%.

As for `Fc1ccc(CNCCCCCCCCNCc2ccc(F)cc2)cc1` [EAP1-39], the “TcTryS Activity ± 2σn-1 (%)” value is on record as 96.0 ± 4.0; 4%.

With `Cc1ccc2c(c1)no[n+]2[O-]` [Compound J10], the “TcTryS Activity ± 2σn-1 (%)” value was 92.6 ± 10.8; 3%.

In the case of `COc1ccc2nc(N3C(=O)C(O)=C(C(=O)c4ccc5c(c4)OCCO5)C3c3ccc(O)c(OC)c3)sc2c1` (centres unmarked) [ADMRC156], the “TcTryS Activity ± 2σn-1 (%)” value is listed as 102.2 ± 8.8; 4%.

With `[O-][n+]1onc2cc(I)ccc21` [Compound J27], the “TcTryS Activity ± 2σn-1 (%)” value is 90.1 ± 5.9; 3%.

Regarding `COc1cc(CNCCCCCCCCCCNCc2ccc(OCc3ccccc3)c(OC)c2)ccc1OCc1ccccc1` [APC1-119], the “TcTryS Activity ± 2σn-1 (%)” value is on record as 101.5 ± 1.9; 4 (1.18) %.

On to `COc1ccc(CNCCCCCCCCCCNCc2ccc(OC)cc2)cc1` [APC1-115], for which the “TcTryS Activity ± 2σn-1 (%)” value was 76.1 ± 2.5; 4%.

With `COc1ccc2nc(N3C(=O)C(O)=C(C(=O)c4ccc5c(c4)OCCO5)C3c3ccc(OC)c(OC)c3)sc2c1` (centres unmarked) [ADMRC155], the “TcTryS Activity ± 2σn-1 (%)” value was 104.0 ± 6.6; 4%.

Turning to `CCCCN(CCCC)C(=O)c1cnc(N)o1` [ZVR103], the “TcTryS Activity ± 2σn-1 (%)” value is reported as 100.0 ± 5.0; 2%.

Consider `COc1cc(CNCCCNCc2ccc(O)c(OC)c2)ccc1O` [APC1-82], for which the “TcTryS Activity ± 2σn-1 (%)” value is 92.9 ± 5.6; 4%.

As to `COc1ccc(C2C(C(=O)c3ccc4c(c3)OCCO4)=C(O)C(=O)N2c2nc3ccc(C)cc3s2)cc1` (centres unmarked) [AD81], the “TcTryS Activity ± 2σn-1 (%)” value is reported as 109.7 ± 8.9; 4%.

Take `CCNC(=S)Nc1nc2nc(NCCCN3CCOCC3)ncc2cc1-c1cc(OC)cc(OC)c1` [ZVR159]: the “% TryS activity (TcTryS)” value is 1.2 ± 3.1; 3% and 0.2 ± 4.0; 4% and 1.2 ± 5.1; 4%; the “TcTryS Activity ± 2σn-1 (%)” value is given as 168.6 ± 4.1; 4 (1.10) %.

Turning to `O=C(C1=C(O)C(=O)N(c2nc3ccc(Cl)cc3s2)C1c1ccc(O)cc1)c1ccc2c(c1)OCCO2` (centres unmarked) [AD83], the “TcTryS Activity ± 2σn-1 (%)” value was 93.6 ± 4.7; 3 (0.93) %.

Still in this assay, the particulars now being: read-out: TcTryS Activity ± 2σn-1 (%).
For `[O-][n+]1onc2cc(F)ccc21` [Compound J31], the remaining activity at 30 µM amounted to 119%.

As to `COc1ccc(C2C(C(=O)c3ccc4c(c3)OCCO4)=C(O)C(=O)N2c2nc3ccc(C)cc3s2)cc1` (centres unmarked) [AD81], the remaining activity at 30 µM stood at 110 ± 8.9%.

For `CCNC(=S)Nc1nc2nc(NCCCN3CCOCC3)ncc2cc1-c1cc(OC)cc(OC)c1` [ZVR159], the remaining activity at 30 µM worked out at 169%.

The target in a further assay is LiTryS (Leishmania infantum trypanothione synthetase) (Leishmania infantum, UniProt A4I2Z3). Nature of the assay: biochemical. The class given is biochemical.
Sequence of LiTryS (Leishmania infantum trypanothione synthetase) (A4I2Z3 1-652): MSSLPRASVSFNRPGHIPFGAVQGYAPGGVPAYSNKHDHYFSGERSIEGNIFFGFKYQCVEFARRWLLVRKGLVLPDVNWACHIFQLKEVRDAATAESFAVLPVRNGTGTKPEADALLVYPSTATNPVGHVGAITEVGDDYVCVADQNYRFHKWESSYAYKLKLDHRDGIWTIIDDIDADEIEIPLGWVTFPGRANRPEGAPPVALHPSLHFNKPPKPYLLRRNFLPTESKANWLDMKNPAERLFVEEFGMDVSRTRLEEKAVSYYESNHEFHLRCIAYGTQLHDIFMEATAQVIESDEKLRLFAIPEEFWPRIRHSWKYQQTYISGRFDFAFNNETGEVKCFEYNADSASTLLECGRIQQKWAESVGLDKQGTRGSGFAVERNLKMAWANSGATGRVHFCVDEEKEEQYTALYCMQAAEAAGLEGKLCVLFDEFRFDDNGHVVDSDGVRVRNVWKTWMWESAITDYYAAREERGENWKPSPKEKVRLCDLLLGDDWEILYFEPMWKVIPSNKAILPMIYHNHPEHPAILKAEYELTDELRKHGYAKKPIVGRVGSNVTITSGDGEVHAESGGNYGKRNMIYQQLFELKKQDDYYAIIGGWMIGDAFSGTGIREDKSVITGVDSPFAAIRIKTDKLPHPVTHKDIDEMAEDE
Details: not given
Turning to `c1ccc(COc2ccc(CNCCCNCc3ccc(OCc4ccccc4)cc3)cc2)cc1` [APC1-71B], the “LiTryS Activity ± 2σn-1 (%)” value is 80.8 ± 8.7; 3%.

Consider `Brc1ccc(CNCCCCCCCCNCc2ccc(Br)cc2)cc1` [EAP1-46], for which the “LiTryS Activity ± 2σn-1 (%)” value is 61.8 ± 3.9; 3%.

As to `c1ccc(CNCCCCCCCCNCc2ccccc2)cc1` [EAP1-5 (I)], the “LiTryS Activity ± 2σn-1 (%)” value is recorded as 62.8 ± 3.9; 4%.

For `Cc1ccc(CNCCCCCCCCCCNCc2ccc(C)cc2)cc1` [EAP1-55], the “LiTryS Activity ± 2σn-1 (%)” value is reported as 71.5 ± 5.8; 4%.

Regarding `Fc1ccc(CNCCCCCCCCNCc2ccc(F)cc2)cc1` [EAP1-39], the “LiTryS Activity ± 2σn-1 (%)” value is on record as 69.6 ± 5.5; 4%.

On to `Cc1ccc2c(c1)no[n+]2[O-]` [Compound J10], for which the “LiTryS Activity ± 2σn-1 (%)” value is recorded as 84.7 ± 10.5; 4%.

Turning to `COc1ccc2nc(N3C(=O)C(O)=C(C(=O)c4ccc5c(c4)OCCO5)C3c3ccc(O)c(OC)c3)sc2c1` (centres unmarked) [ADMRC156], the “LiTryS Activity ± 2σn-1 (%)” value is recorded as 79.4 ± 4.6; 4%.

For `[O-][n+]1onc2cc(I)ccc21` [Compound J27], the “LiTryS Activity ± 2σn-1 (%)” value is reported as 71.0 ± 8.0; 3%.

`COc1cc(CNCCCCCCCCCCNCc2ccc(OCc3ccccc3)c(OC)c2)ccc1OCc1ccccc1` [APC1-119]: the “LiTryS Activity ± 2σn-1 (%)” value was 78.1 ± 9.8; 6 (1.219) %.

In the case of `COc1ccc(CNCCCCCCCCCCNCc2ccc(OC)cc2)cc1` [APC1-115], the “LiTryS Activity ± 2σn-1 (%)” value is recorded as 79.8 ± 2.3; 3%.

In the case of `COc1ccc2nc(N3C(=O)C(O)=C(C(=O)c4ccc5c(c4)OCCO5)C3c3ccc(OC)c(OC)c3)sc2c1` (centres unmarked) [ADMRC155], the “LiTryS Activity ± 2σn-1 (%)” value is reported as 89.3 ± 7.4; 3%.

Consider `CCCCN(CCCC)C(=O)c1cnc(N)o1` [ZVR103], for which the “LiTryS Activity ± 2σn-1 (%)” value was 99.4 ± 5.6; 4%.

As for `COc1cc(CNCCCNCc2ccc(O)c(OC)c2)ccc1O` [APC1-82], the “LiTryS Activity ± 2σn-1 (%)” value is listed as 84.9 ± 0.9; 4%.

As for `O=C(C1=C(O)C(=O)N(c2nc3ccc(Cl)cc3s2)C1c1ccc(O)cc1)c1ccc2c(c1)OCCO2` (centres unmarked) [AD83], the “LiTryS Activity ± 2σn-1 (%)” value is 83.9 ± 3.8; 4%.

Staying with this assay, now noted: read-out: LiTryS Activity ± 2σn-1 (%).
Regarding `[O-][n+]1onc2cc(F)ccc21` [Compound J31], the activity at 30 µM is 84.1 ± 0.001%.

As for `COc1ccc(C2C(C(=O)c3ccc4c(c3)OCCO4)=C(O)C(=O)N2c2nc3ccc(C)cc3s2)cc1` (centres unmarked) [AD81], the activity at 30 µM worked out at 83.9 ± 4.2%.

As to `CCNC(=S)Nc1nc2nc(NCCCN3CCOCC3)ncc2cc1-c1cc(OC)cc(OC)c1` [ZVR159], the activity at 30 µM is 101 ± 5.8%.

Another assay addresses TbTryS (Trypanosoma brucei trypanothione synthetase) (Trypanosoma brucei brucei, UniProt Q8IEX1). Nature of the assay: biochemical.
Details: not given
In the case of `c1ccc(COc2ccc(CNCCCNCc3ccc(OCc4ccccc4)cc3)cc2)cc1` [APC1-71B], the “TbTryS Activity ± 2σn-1 (%)” value was 66.0 ± 0.7; 3%.

For the compound `Brc1ccc(CNCCCCCCCCNCc2ccc(Br)cc2)cc1` [EAP1-46], the “TbTryS Activity ± 2σn-1 (%)” value was 73.4 ± 1.7; 3%.

On to `c1ccc(CNCCCCCCCCNCc2ccccc2)cc1` [EAP1-5 (I)], for which the “TbTryS Activity ± 2σn-1 (%)” value is given as 78.3 ± 3.6; 4%.

Consider `Cc1ccc(CNCCCCCCCCCCNCc2ccc(C)cc2)cc1` [EAP1-55], for which the “TbTryS Activity ± 2σn-1 (%)” value is recorded as 61.8 ± 4.8; 3%.

As for `Fc1ccc(CNCCCCCCCCNCc2ccc(F)cc2)cc1` [EAP1-39], the “TbTryS Activity ± 2σn-1 (%)” value was 85.7 ± 2.0; 3%.

`Cc1ccc2c(c1)no[n+]2[O-]` [Compound J10]: the “TbTryS Activity ± 2σn-1 (%)” value is listed as 92.7 ± 3.4; 3%.

In the case of `COc1ccc2nc(N3C(=O)C(O)=C(C(=O)c4ccc5c(c4)OCCO5)C3c3ccc(O)c(OC)c3)sc2c1` (centres unmarked) [ADMRC156], the “TbTryS Activity ± 2σn-1 (%)” value is 108.1 ± 6.5; 3%.

In the case of `[O-][n+]1onc2cc(I)ccc21` [Compound J27], the “TbTryS Activity ± 2σn-1 (%)” value is reported as 98.2 ± 5.6; 3%.

Take `COc1cc(CNCCCCCCCCCCNCc2ccc(OCc3ccccc3)c(OC)c2)ccc1OCc1ccccc1` [APC1-119]: the “TbTryS Activity ± 2σn-1 (%)” value is recorded as 55.5 ± 1.8. 3 (1.11) %.

Turning to `COc1ccc(CNCCCCCCCCCCNCc2ccc(OC)cc2)cc1` [APC1-115], the “TbTryS Activity ± 2σn-1 (%)” value is on record as 69.0 ± 6.3; 3%.

Turning to `COc1ccc2nc(N3C(=O)C(O)=C(C(=O)c4ccc5c(c4)OCCO5)C3c3ccc(OC)c(OC)c3)sc2c1` (centres unmarked) [ADMRC155], the “TbTryS Activity ± 2σn-1 (%)” value is recorded as 97.5 ± 3.4; 3%.

Take `CCCCN(CCCC)C(=O)c1cnc(N)o1` [ZVR103]: the “TbTryS Activity ± 2σn-1 (%)” value was 82.4 ± 4.7; 3%.

As to `COc1cc(CNCCCNCc2ccc(O)c(OC)c2)ccc1O` [APC1-82], the “TbTryS Activity ± 2σn-1 (%)” value is recorded as 88.1 ± 4.4; 3%.

Regarding `O=C(C1=C(O)C(=O)N(c2nc3ccc(Cl)cc3s2)C1c1ccc(O)cc1)c1ccc2c(c1)OCCO2` (centres unmarked) [AD83], the “TbTryS Activity ± 2σn-1 (%)” value is on record as 106.9 ± 4.7; 3%.

The same assay, now with this note: 30 µM.
For `COc1ccc(C2C(C(=O)c3ccc4c(c3)OCCO4)=C(O)C(=O)N2c2nc3ccc(C)cc3s2)cc1` (centres unmarked) [AD81], the “TbTryS Activity ± 2σn-1 (%)” value is on record as 128.2 ± 3.6 ; 8 (0.93) %.

Still in this assay, the particulars now being: read-out: TbTryS Activity ± 2σn-1 (%).
For `[O-][n+]1onc2cc(F)ccc21` [Compound J31], the activity at 30 µM stood at 96.2 ± 3.7%.

For `COc1ccc(C2C(C(=O)c3ccc4c(c3)OCCO4)=C(O)C(=O)N2c2nc3ccc(C)cc3s2)cc1` (centres unmarked) [AD81], the activity at 30 µM came to 128%.

On to `CCNC(=S)Nc1nc2nc(NCCCN3CCOCC3)ncc2cc1-c1cc(OC)cc(OC)c1` [ZVR159], for which the activity at 30 µM was found to be 81.3 ± 1.6%.
